{"source": "paper PMC11057203", "about": "“Synergy between Winter Flounder antimicrobial peptides” (npj Antimicrobials and Resistance, 2023)", "key": {"[1]": {"system": "P. aeruginosa RP73", "type": "cell-based, Pseudomonas aeruginosa", "method": "(§1) Synergy was measured using standard microdilution Chequerboard assays under the same conditions as the MICs with RPMI140 + 5% FBS used alongside MHB[18]. Twofold dilution series of each peptide or antibiotic were prepared in separate 96 well plates and then combined into one before addition of bacteria. The growth/no growth interface was determined using the same definition as the MIC. The fractional inhibitory concentration was calculated from the most synergistic well on the plate for three independent repeats, and presented as above. MICs were determined on the same plates as the FICs to increase reproducibility."}, "[2]": {"system": "EMRSA-15 NCTC 13616", "type": "cell-based, Staphylococcus aureus", "method": "as §1"}, "[3]": {"system": "Acinetobacter baumannii ATCC 17978", "type": "cell-based", "conditions": "Supplementary Table 1; Mueller-Hinton broth; unit inferred", "quoted_text": "(§3) The antibacterial activity of the peptides was assessed through a modified two-fold broth microdilution assay with modal MICs generated from at least three biological replicate experiments[37]. The method broadly followed EUCAST methodology, with non-cation adjusted Mueller Hinton replacing cation-adjusted Mueller Hinton. Peptides and antibiotics were diluted in a two-fold dilution in media down a 96 well plate. Bacteria were then added, back-diluted from an overnight culture, at a starting concentration of 5 × 10^5 CFU/ml. Plates were incubated, static at 37 °C, for 20 h and the OD600 was determined using a Clariostar plate reader (BMG Labtech)."}, "[4]": {"system": "Acinetobacter baumannii AYE", "type": "cell-based", "conditions": "Supplementary Table 1; Mueller-Hinton broth; unit inferred", "quoted_text": "as §3"}, "[5]": {"system": "VR Enterococcus faecium NCTC 12204", "type": "cell-based", "conditions": "Supplementary Table 1; Mueller-Hinton broth; unit inferred", "quoted_text": "as §3"}, "[6]": {"system": "Staphylococcus aureus 1199B", "test": "Broth microdilution MIC", "type": "cell-based", "conditions": "Supplementary Table 1; Mueller-Hinton broth; unit not given", "method": "(§2) The antibacterial activity of the peptides was assessed through a modified two-fold broth microdilution assay with modal MICs generated from at least three biological replicate experiments. The method broadly followed EUCAST methodology, with non-cation adjusted Mueller Hinton replacing cation-adjusted Mueller Hinton. Peptides and antibiotics were diluted in a two-fold dilution in media down a 96 well plate. Bacteria were then added, back-diluted from an overnight culture, at a starting concentration of 5 × 10^5 CFU/ml. Plates were incubated, static at 37 °C, for 20 h and the OD600 was determined using a Clariostar plate reader (BMG Labtech)."}, "[7]": {"system": "Staphylococcus aureus USA300", "test": "Broth microdilution MIC", "type": "cell-based", "conditions": "Supplementary Table 1; Mueller-Hinton broth; unit not given", "method": "as §2"}, "[8]": {"system": "Staphylococcus aureus NCTC 6571", "test": "Broth microdilution MIC", "type": "cell-based", "conditions": "Supplementary Table 1; Mueller-Hinton broth; unit not given", "method": "as §2"}, "[9]": {"system": "Pseudomonas aeruginosa PAO1", "type": "cell-based", "conditions": "Supplementary Table 1; Mueller-Hinton broth; unit inferred", "quoted_text": "as §3"}, "[10]": {"system": "VS Enterococcus faecalis NCTC 775", "type": "cell-based", "conditions": "Supplementary Table 1; Mueller-Hinton broth; unit not given"}, "[11]": {"system": "P. aeruginosa CAS3", "test": "Broth microdilution MIC", "type": "cell-based, Pseudomonas aeruginosa", "conditions": "Supplementary Table 1; Mueller-Hinton broth; unit not given", "method": "as §2"}, "[12]": {"system": "P. aeruginosa 372261", "test": "Broth microdilution MIC", "type": "cell-based, Pseudomonas aeruginosa", "conditions": "Supplementary Table 1; Mueller-Hinton broth; unit not given", "method": "as §2"}, "[13]": {"system": "P. aeruginosa GH12", "test": "Broth microdilution MIC", "type": "cell-based, Pseudomonas aeruginosa", "conditions": "Supplementary Table 1; Mueller-Hinton broth; unit not given", "method": "as §2"}, "[14]": {"system": "P. aeruginosa CAS2", "test": "Broth microdilution MIC", "type": "cell-based, Pseudomonas aeruginosa", "conditions": "Supplementary Table 1; Mueller-Hinton broth; unit not given", "method": "as §2"}, "[15]": {"system": "P. aeruginosa CAS4", "test": "Broth microdilution MIC", "type": "cell-based, Pseudomonas aeruginosa", "conditions": "Supplementary Table 1; Mueller-Hinton broth; unit not given", "method": "as §2"}, "[16]": {"system": "Pseudomonas aeruginosa RP73", "type": "cell-based", "conditions": "Supplementary Table 1; Mueller-Hinton broth; unit inferred", "quoted_text": "as §3"}, "[17]": {"system": "VR Enterococcus faecalis NCTC 12201", "type": "cell-based", "conditions": "Supplementary Table 1; Mueller-Hinton broth; unit inferred", "quoted_text": "as §3"}, "[18]": {"system": "Escherichia coli NCTC 12923", "type": "cell-based", "conditions": "Supplementary Table 1; Mueller-Hinton broth; unit inferred", "quoted_text": "as §3"}, "[19]": {"system": "Klebsiella pneumoniae M6", "type": "cell-based", "conditions": "Supplementary Table 1; Mueller-Hinton broth; unit inferred", "quoted_text": "as §3"}, "[20]": {"system": "EMR Staphylococcus aureus-15 NCTC 13616", "type": "cell-based", "conditions": "Supplementary Table 1; Mueller-Hinton broth; unit inferred", "quoted_text": "as §3"}, "[21]": {"system": "Klebsiella pneumoniae NCTC 13368", "type": "cell-based", "conditions": "Supplementary Table 1; Mueller-Hinton broth; unit inferred", "quoted_text": "as §3"}, "[22]": {"system": "Pseudomonas aeruginosa NCTC 13437", "type": "cell-based", "conditions": "Supplementary Table 1; Mueller-Hinton broth; unit inferred", "quoted_text": "as §3"}, "[23]": {"system": "A. baumannii ATCC 17978", "test": "Galleria mellonella burn wound infection model", "type": "in vivo", "conditions": "5 mg/kg, topical 1 h after infection; n = 30 larvae; burn and infection untreated 46.0%", "quoted_text": "Prior to use, G. mellonella were surface decontaminated by immersion in 50% ethanol for 20 s and allowed to dry. All assays were performed on three separate occasions using a group size of 10 larvae; the larvae were kept in separate petri dishes and in the dark in a static incubator at 37 °C for the duration of the experiment. Fresh agar plates of A. baumannii ATCC 17978 were prepared immediately prior to the experiment. Larvae were burnt using the flat head of a nail which was heated in a blue Bunsen burner flame until red hot, cooled for 15 s and superficially applied for 2 s to generate a 2 mm^2 burn. Larvae were infected with a single colony of A. baumannii ATCC 17978 applied directly to the burn site. Treatment was applied topically 1 h after infection in a volume of 5 µl or sterile phosphate buffered saline as a control. Survival was monitored over 96 h."}, "[24]": {"system": "Gram-negative bacteria", "test": "Broth microdilution MIC, Gram-negative panel", "type": "cell-based", "conditions": "Mueller–Hinton broth; span of Table 2 Gram-negative isolates", "method": "as §2"}}, "note": "Non-standard residues stand in square brackets, D forms with d. Residues, ends and D or L forms follow the SMILES beside them."}
{"smiles": "CC[C@@H](C)[C@@H](NC(=O)[C@@H](CCCNC(=N)N)NC(=O)[C@@H](CCCNC(=N)N)NC(=O)[C@@H](CC(C)C)NC(=O)[C@H](N)Cc1c[nH]c2ccccc12)C(=O)NCC(=O)N[C@H](CCCCN)C(=O)NCC(=O)N[C@@H](C(=O)N[C@H](CCCCN)C(=O)N[C@@H](C(=O)N[C@@H](C(=O)NCC(=O)NCC(=O)N[C@H](C)C(=O)N[C@H](C)C(=O)N[C@H](CC(C)C)C(=O)N[C@H](CC(=O)O)C(=O)N[C@H](Cc1c[nH]cn1)C(=O)N[C@H](CC(C)C)C(N)=O)[C@H](C)CC)[C@H](C)CC)C(C)C", "note": "[D-WF1a] (H-[dW][dL][dR][dR][dI]G[dK]G[dV][dK][dI][dI]GG[dA][dA][dL][dD][dH][dL]-NH2; N-terminus assumed)", "values": [{"measurement": "D-WF1a MIC (alone)", "setting": "[1]", "value": 512, "unit": "µg/mL"}, {"measurement": "D-WF1a MIC (alone)", "setting": "[2]", "value": 512, "unit": "µg/mL"}]}
{"smiles": "CC(C)C[C@@H](NC(=O)[C@@H](Cc1ccc(O)cc1)NC(=O)[C@@H](Cc1c[nH]cn1)NC(=O)[C@H](NC(=O)[C@@H](CC(C)C)NC(=O)[C@@H](C)NC(=O)[C@@H](C)NC(=O)[C@@H](CCCNC(=N)N)NC(=O)CNC(=O)[C@H](NC(=O)[C@@H](Cc1c[nH]cn1)NC(=O)[C@@H](CCCNC(=N)N)NC(=O)CNC(=O)[C@H](NC(=O)[C@@H](Cc1c[nH]cn1)NC(=O)[C@@H](C)NC(=O)[C@@H](C)NC(=O)[C@@H](CCCNC(=N)N)NC(=O)[C@@H](CCCNC(=N)N)NC(=O)[C@@H](Cc1ccccc1)NC(=O)[C@@H](Cc1ccccc1)NC(=O)[C@@H](CO)NC(=O)CNC(=O)[C@@H](Cc1c[nH]c2ccccc12)NC(=O)CN)C(C)C)C(C)C)[C@H](C)O)C(N)=O", "note": "[D-pleurocidin-KR] (H-G[dW]G[dS][dF][dF][dR][dR][dA][dA][dH][dV]G[dR][dH][dV]G[dR][dA][dA][dL][dT][dH][dY][dL]-NH2; N-terminus assumed)", "values": [{"measurement": "Pleurocidin MIC (analogue alone)", "setting": "[1]", "value": "8-16 µg/ml"}, {"measurement": "Pleurocidin MIC (analogue alone)", "setting": "[2]", "value": 2, "unit": "µg/ml"}]}
{"smiles": "CC(C)C[C@@H](NC(=O)[C@@H](Cc1ccc(O)cc1)NC(=O)[C@@H](Cc1c[nH]cn1)NC(=O)[C@H](NC(=O)[C@@H](CC(C)C)NC(=O)[C@@H](C)NC(=O)[C@@H](C)NC(=O)[C@@H](CCCCN)NC(=O)CNC(=O)[C@H](NC(=O)[C@@H](Cc1c[nH]cn1)NC(=O)[C@@H](CCCCN)NC(=O)CNC(=O)[C@H](NC(=O)[C@@H](Cc1c[nH]cn1)NC(=O)[C@@H](C)NC(=O)[C@@H](C)NC(=O)[C@@H](CCCCN)NC(=O)[C@@H](CCCCN)NC(=O)[C@@H](Cc1ccccc1)NC(=O)[C@@H](Cc1ccccc1)NC(=O)[C@@H](CO)NC(=O)CNC(=O)[C@@H](Cc1c[nH]c2ccccc12)NC(=O)CN)C(C)C)C(C)C)[C@H](C)O)C(N)=O", "note": "[D-pleurocidin] (H-G[dW]G[dS][dF][dF][dK][dK][dA][dA][dH][dV]G[dK][dH][dV]G[dK][dA][dA][dL][dT][dH][dY][dL]-NH2; N-terminus assumed)", "values": [{"measurement": "Antimicrobial activity of D-enantiomers, Acinetobacter baumannii ATCC 17978", "setting": "[3]", "value": 1, "unit": "µg/mL"}, {"measurement": "Antimicrobial activity of D-enantiomers, Acinetobacter baumannii AYE", "setting": "[4]", "value": 2, "unit": "µg/mL"}, {"measurement": "Antimicrobial activity of D-enantiomers, VR Enterococcus faecium NCTC 12204", "setting": "[5]", "value": 16, "unit": "µg/mL"}, {"measurement": "Antimicrobial activity of D-enantiomers, Staphylococcus aureus 1199B", "setting": "[6]", "value": 16}, {"measurement": "Antimicrobial activity of D-enantiomers, Staphylococcus aureus USA300", "setting": "[7]", "value": 32}, {"measurement": "Antimicrobial activity of D-enantiomers, Staphylococcus aureus NCTC 6571", "setting": "[8]", "value": 16}, {"measurement": "Antimicrobial activity of D-enantiomers, Pseudomonas aeruginosa PAO1", "setting": "[9]", "value": 2, "unit": "µg/mL"}, {"measurement": "Pleurocidin MIC (analogue alone)", "setting": "[1]", "value": "8-16 µg/ml"}, {"measurement": "Antimicrobial activity of D-enantiomers, VS Enterococcus faecalis NCTC 775", "setting": "[10]", "value": 16}, {"measurement": "Antimicrobial activity of D-enantiomers, P. aeruginosa CAS3", "setting": "[11]", "value": 4}, {"measurement": "Antimicrobial activity of D-enantiomers, P. aeruginosa 372261", "setting": "[12]", "value": 4}, {"measurement": "Antimicrobial activity of D-enantiomers, P. aeruginosa GH12", "setting": "[13]", "value": 4}, {"measurement": "Antimicrobial activity of D-enantiomers, P. aeruginosa CAS2", "setting": "[14]", "value": 8}, {"measurement": "Antimicrobial activity of D-enantiomers, P. aeruginosa CAS4", "setting": "[15]", "value": 8}, {"measurement": "Antimicrobial activity of D-enantiomers, P. aeruginosa RP73", "setting": "[16]", "value": 16, "unit": "µg/mL"}, {"measurement": "Antimicrobial activity of D-enantiomers, VR Enterococcus faecalis NCTC 12201", "setting": "[17]", "value": 64, "unit": "µg/mL"}, {"measurement": "Antimicrobial activity of D-enantiomers, Escherichia coli NCTC 12923", "setting": "[18]", "value": 1, "unit": "µg/mL"}, {"measurement": "Pleurocidin MIC (analogue alone)", "setting": "[2]", "value": "8-16 µg/ml"}, {"measurement": "Antimicrobial activity of D-enantiomers, Klebsiella pneumoniae M6", "setting": "[19]", "value": 2, "unit": "µg/mL"}, {"measurement": "Antimicrobial activity of D-enantiomers, EMR Staphylococcus aureus-15 NCTC 13616", "setting": "[20]", "value": 16, "unit": "µg/mL"}, {"measurement": "Antimicrobial activity of D-enantiomers, Klebsiella pneumoniae NCTC 13368", "setting": "[21]", "value": 2, "unit": "µg/mL"}, {"measurement": "Antimicrobial activity of D-enantiomers, Pseudomonas aeruginosa NCTC 13437", "setting": "[22]", "value": 8, "unit": "µg/mL"}]}
{"smiles": "CNC(C)C1CCC(N)C(OC2C(N)CC(N)C(OC3OCC(C)(O)C(NC)C3O)C2O)O1", "note": "(stereo not drawn) [Gentamicin]", "values": [{"measurement": "Survival % @ 96 h", "setting": "[23]", "value": 86.7, "unit": "%"}]}
{"smiles": "C[C@@H](O)[C@H]1C(=O)N2C(C(=O)O)=C(SCCN=CN)C[C@H]12", "note": "[Imipenem]", "values": [{"measurement": "Survival % @ 96 h", "setting": "[23]", "value": 70.0, "unit": "%"}]}
{"smiles": "C[C@@H](O)[C@H]1C(=O)N2C(C(=O)O)=C(S[C@@H]3CN[C@H](C(=O)N(C)C)C3)[C@H](C)[C@H]12", "note": "[Meropenem]", "values": [{"measurement": "Survival % @ 96 h", "setting": "[23]", "value": 70.0, "unit": "%"}]}
{"smiles": "CC[C@H](C)[C@H](NC(=O)[C@H](CCCNC(=N)N)NC(=O)[C@H](CCCNC(=N)N)NC(=O)[C@H](CC(C)C)NC(=O)[C@H](Cc1c[nH]c2ccccc12)NC(=O)[C@H](CCCCN)NC(=O)[C@H](CCCNC(=N)N)NC(=O)[C@H](CCCCN)NC(=O)[C@H](CCCNC(=N)N)NC(=O)[C@H](CCCNC(=N)N)NC(=O)CN)C(=O)NCC(=O)N[C@@H](CCCCN)C(=O)NCC(=O)N[C@H](C(=O)N[C@@H](CCCCN)C(=O)N[C@H](C(=O)N[C@H](C(=O)NCC(=O)NCC(=O)N[C@@H](C)C(=O)N[C@@H](C)C(=O)N[C@@H](CC(C)C)C(=O)N[C@@H](CC(=O)O)C(=O)N[C@@H](Cc1c[nH]cn1)C(=O)N[C@@H](CC(C)C)C(N)=O)[C@@H](C)CC)[C@@H](C)CC)C(C)C", "note": "[WF1a-1] (H-GRRKRKWLRRIGKGVKIIGGAALDHL-NH2)", "values": [{"measurement": "MICs against Gram-negative isolates (range over panel)", "setting": "[24]", "value": "0.25 to 8", "unit": "µg/mL"}]}
